Measurements published in ChEMBL document CHEMBL1139978, “Synthesis and radiopharmacological characterization of [11C]AL-438 as a nonsteroidal ligand for imaging brain glucocorticoid receptors” (Bioorg Med Chem Lett, 2007).

Legend:
Cortex [1] = assay: Biodistribution in Wistar rat cortex at 20 MBq, iv after 60 mins; type: ADME, organism-based; conditions: in vivo, 1 h
Harderian gland [2] = assay: Biodistribution in Wistar rat harderian gland at 20 MBq, iv after 60 mins; type: ADME, organism-based; conditions: in vivo, 1 h
Cortex [3] = assay: Biodistribution in corticosterone pretreated Wistar rat cortex at 20 MBq, iv after 60 mins; type: ADME, organism-based; conditions: in vivo, 1 h
Lung [4] = assay: Biodistribution in Wistar rat lung at 20 MBq, iv after 60 mins; type: ADME, organism-based; conditions: in vivo, 1 h
Spleen = assay: Biodistribution in corticosterone pretreated Wistar rat spleen at 20 MBq, iv after 5 mins; type: ADME, organism-based; conditions: in vivo
Rattus norvegicus [5] = assay: Biodistribution in Wistar rat brown fat at 20 MBq, iv after 5 mins; type: ADME, organism-based, Brown adipose tissue; conditions: in vivo
Hippocampus [6] = assay: Biodistribution in corticosterone pretreated Wistar rat hippocampus at 20 MBq, iv after 60 mins; type: ADME, organism-based; conditions: in vivo, 1 h
Pituitary gland [7] = assay: Biodistribution in Wistar rat pituitary at 20 MBq, iv after 5 mins; type: ADME, organism-based; conditions: in vivo
Blood [8] = assay: Biodistribution in Wistar rat blood at 20 MBq, iv after 5 mins; type: ADME, organism-based; conditions: in vivo
Rattus norvegicus [9] = assay: Biodistribution in corticosterone pretreated Wistar rat brown fat at 20 MBq, iv after 5 mins; type: ADME, organism-based, Brown adipose tissue; conditions: in vivo
Harderian gland [10] = assay: Biodistribution in Wistar rat harderian gland at 20 MBq, iv after 5 mins; type: ADME, organism-based; conditions: in vivo
Rattus norvegicus [11] = assay: Biodistribution in Wistar rat rest of brain at 20 MBq, iv after 5 mins; type: ADME, organism-based; conditions: in vivo
Pituitary gland [12] = assay: Biodistribution in corticosterone pretreated Wistar rat pituitary at 20 MBq, iv after 60 mins; type: ADME, organism-based; conditions: in vivo, 1 h
Blood [13] = assay: Biodistribution in Wistar rat blood at 20 MBq, iv after 60 mins; type: ADME, organism-based; conditions: in vivo, 1 h
Heart = assay: Biodistribution in corticosterone pretreated Wistar rat heart at 20 MBq, iv after 60 mins; type: ADME, organism-based; conditions: in vivo, 1 h
Thymus [14] = assay: Biodistribution in Wistar rat thymus at 20 MBq, iv after 60 mins; type: ADME, organism-based; conditions: in vivo, 1 h
Kidney [15] = assay: Biodistribution in Wistar rat kidney at 20 MBq, iv after 5 mins; type: ADME, organism-based; conditions: in vivo
Blood [16] = assay: Biodistribution in corticosterone pretreated Wistar rat blood at 20 MBq, iv after 5 mins; type: ADME, organism-based; conditions: in vivo
Lung [17] = assay: Biodistribution in corticosterone pretreated Wistar rat lung at 20 MBq, iv after 60 mins; type: ADME, organism-based; conditions: in vivo, 1 h
Lung [18] = assay: Biodistribution in Wistar rat lung at 20 MBq, iv after 5 mins; type: ADME, organism-based; conditions: in vivo
Kidney [19] = assay: Biodistribution in Wistar rat kidney at 20 MBq, iv after 60 mins; type: ADME, organism-based; conditions: in vivo, 1 h
Cerebellum [20] = assay: Biodistribution in corticosterone pretreated Wistar rat cerebellum at 20 MBq, iv after 60 mins; type: ADME, organism-based; conditions: in vivo, 1 h
Adrenal [21] = assay: Biodistribution in corticosterone pretreated Wistar rat adrenal at 20 MBq, iv after 60 mins; type: ADME, organism-based, Adrenal tissue; conditions: in vivo, 1 h
Hippocampus [22] = assay: Biodistribution in Wistar rat hippocampus at 20 MBq, iv after 5 mins; type: ADME, organism-based; conditions: in vivo
Cerebellum [23] = assay: Biodistribution in Wistar rat cerebellum at 20 MBq, iv after 60 mins; type: ADME, organism-based; conditions: in vivo, 1 h
Adrenal [24] = assay: Biodistribution in Wistar rat adrenal at 20 MBq, iv after 60 mins; type: ADME, organism-based, Adrenal tissue; conditions: in vivo, 1 h
Femur = assay: Biodistribution in corticosterone pretreated Wistar rat femur at 20 MBq, iv after 5 mins; type: ADME, organism-based; conditions: in vivo
Adrenal [25] = assay: Biodistribution in Wistar rat adrenal at 20 MBq, iv after 5 mins; type: ADME, organism-based, Adrenal tissue; conditions: in vivo
Rattus norvegicus [26] = assay: Biodistribution in corticosterone pretreated Wistar rat rest of brain at 20 MBq, iv after 60 mins; type: ADME, organism-based; conditions: in vivo, 1 h
Rattus norvegicus [27] = assay: Biodistribution in corticosterone pretreated Wistar rat rest of brain at 20 MBq, iv after 5 mins; type: ADME, organism-based; conditions: in vivo
Blood [28] = assay: Biodistribution in corticosterone pretreated Wistar rat blood at 20 MBq, iv after 60 mins; type: ADME, organism-based; conditions: in vivo, 1 h
Rattus norvegicus [29] = assay: Biodistribution in Wistar rat fat at 20 MBq, iv after 5 mins; type: ADME, organism-based, Adipose tissue; conditions: in vivo
Thymus [30] = assay: Biodistribution in corticosterone pretreated Wistar rat thymus at 20 MBq, iv after 60 mins; type: ADME, organism-based; conditions: in vivo, 1 h
Rattus norvegicus [31] = assay: Biodistribution in corticosterone pretreated Wistar rat fat at 20 MBq, iv after 5 mins; type: ADME, organism-based, Adipose tissue; conditions: in vivo
Thymus [32] = assay: Biodistribution in corticosterone pretreated Wistar rat thymus at 20 MBq, iv after 5 mins; type: ADME, organism-based; conditions: in vivo
Pancreas = assay: Biodistribution in corticosterone pretreated Wistar rat pancreas at 20 MBq, iv after60 mins; type: ADME, organism-based; conditions: in vivo, 1 h
Harderian gland [33] = assay: Biodistribution in corticosterone pretreated Wistar rat harderian gland at 20 MBq, iv after 60 mins; type: ADME, organism-based; conditions: in vivo, 1 h
Muscle tissue = assay: Biodistribution in Wistar rat muscle at 20 MBq, iv after 60 mins; type: ADME, organism-based; conditions: in vivo, 1 h
Rattus norvegicus [34] = assay: Biodistribution in corticosterone pretreated Wistar rat brown fat at 20 MBq, iv after 60 mins; type: ADME, organism-based, Brown adipose tissue; conditions: in vivo, 1 h
Adrenal [35] = assay: Biodistribution in corticosterone pretreated Wistar rat adrenal at 20 MBq, iv after 5 mins; type: ADME, organism-based, Adrenal tissue; conditions: in vivo

- Drug uptake (Cortex [1]): 0.6 % ID/g
- Drug uptake (Harderian gland [2]): 3.35 % ID/g
- Drug uptake (Cortex [3]): 0.74 % ID/g
- Drug uptake (Lung [4]): 1.11 % ID/g
- Drug uptake (Spleen): 1.21 % ID/g
- Drug uptake (Rattus norvegicus [5]): 5.22 % ID/g
- Drug uptake (Hippocampus [6]): 0.68 % ID/g
- Drug uptake (Pituitary gland [7]): 2.49 % ID/g
- Drug uptake (Blood [8]): 0.52 % ID/g
- Drug uptake (Rattus norvegicus [9]): 5 % ID/g
- Drug uptake (Harderian gland [10]): 1.68 % ID/g
- Drug uptake (Rattus norvegicus [11]): 1.52 % ID/g
- Drug uptake (Pituitary gland [12]): 1.76 % ID/g
- Drug uptake (Blood [13]): 0.6 % ID/g
- Drug uptake (Heart): 0.67 % ID/g
- Drug uptake (Thymus [14]): 1.48 % ID/g
- Drug uptake (Kidney [15]): 1.72 % ID/g
- Drug uptake (Blood [16]): 0.52 % ID/g
- Drug uptake (Lung [17]): 1.03 % ID/g
- Drug uptake (Lung [18]): 1.44 % ID/g
- Drug uptake (Kidney [19]): 1.19 % ID/g
- Drug uptake (Cerebellum [20]): 0.64 % ID/g
- Drug uptake (Adrenal [21]): 3.8 % ID/g
- Drug uptake (Hippocampus [22]): 1.3 % ID/g
- Drug uptake (Cerebellum [23]): 0.53 % ID/g
- Drug uptake (Adrenal [24]): 4.4 % ID/g
- Drug uptake (Femur): 0.85 % ID/g
- Drug uptake (Adrenal [25]): 7.63 % ID/g
- Drug uptake (Rattus norvegicus [26]): 0.61 % ID/g
- Drug uptake (Rattus norvegicus [27]): 1.46 % ID/g
- Drug uptake (Blood [28]): 0.74 % ID/g
- Drug uptake (Rattus norvegicus [29]): 1.19 % ID/g
- Drug uptake (Thymus [30]): 1.6 % ID/g
- Drug uptake (Rattus norvegicus [31]): 1.51 % ID/g
- Drug uptake (Thymus [32]): 1.46 % ID/g
- Drug uptake (Pancreas): 1.43 % ID/g
- Drug uptake (Harderian gland [33]): 2.87 % ID/g
- Drug uptake (Muscle tissue): 0.59 % ID/g
- Drug uptake (Rattus norvegicus [34]): 7.44 % ID/g
- Drug uptake (Adrenal [35]): 8.68 % ID/g
Structure (SMILES): C=CCC1Oc2cccc(O[11CH3])c2-c2ccc3c(c21)C(C)=CC(C)(C)N3 (stereo not given)
